# US20110136666A1, “CHEMICAL COMPOUNDS” (SYNGENTA CROP PROTECTION, INC., priority 2008, published 2011)
# Key:
# Type in all cases: in vivo
# [1] = system: Alopecurus myosuroides (ALOMY); experiment: Pre-emergence biological efficacy, glasshouse pot test; details: 312 h, after 13 days, 100=total damage, 0=no damage, read-out: Percentage damage caused to weed species ALOMY
# Method: (§1) Seeds of Alopecurus myosuroides (ALOMY), Setaria faberi (SETFA), Echinochloa crus-galli (ECHCG), Solanum nigrum (SOLNI), Amaranthus retroflexus (AMARE) and Ipomea hederaceae (IPOHE) were sown in standard soil in pots. After cultivation for one day under controlled conditions in a glasshouse (at 24/16° C., day/night; 14 hours light; 65% humidity), the plants were sprayed with an aqueous spray solution derived from the formulation of the technical active ingredient in acetone/water (50:50) solution containing 0.5% Tween 20 (polyoxyethylene sorbitan monolaurate, CAS RN 9005-64-5) to give a final dose of 250 or 1000 g/ha of test compound.
# (§2) The test plants were then grown under controlled conditions in the glasshouse (at 24/16° C., day/night; 14 hours light; 65% humidity) and watered twice daily. After 13 days the test was evaluated (100=total damage to plant; 0=no damage to plant).
# [2] = system: Echinochloa crus-galli (ECHCG); experiment: as above; details: 312 h, after 13 days, 100=total damage, 0=no damage, read-out: Percentage damage caused to weed species ECHCG
# Method: as §1, §2
# Solanum nigrum (SOLNI) [3] = experiment: as above; details: 312 h, after 13 days, 100=total damage, 0=no damage, read-out: Percentage damage caused to weed species SOLNI
# Method: as §1, §2
# [4] = system: Ipomea hederaceae (IPOHE); experiment: as above; details: Ipomoea hederacea, 312 h, after 13 days, 100=total damage, 0=no damage, read-out: Percentage damage caused to weed species IPOHE
# Method: as §1, §2
# Setaria faberi (SETFA) [5] = experiment: as above; details: 312 h, after 13 days, 100=total damage, 0=no damage, read-out: Percentage damage caused to weed species SETFA
# Method: as §1, §2
# [6] = system: Amaranthus retroflexus (AMARE); experiment: as above; details: 312 h, after 13 days, 100=total damage, 0=no damage, read-out: Percentage damage caused to weed species AMARE
# Method: as §1, §2
# [7] = system: Alopecurus myosuroides (ALOMY); experiment: Post-emergence biological efficacy, glasshouse pot test; details: 312 h, after 13 days, 100=total damage, 0=no damage, read-out: Percentage damage caused to weed species ALOMY
# Method: as §1, with “8 days” for “one day”
# (§3) The test plants were then grown on under controlled conditions in a glasshouse (at 24/16° C., day/night; 14 hours light; 65% humidity) and watered twice daily. After 13 days the test was evaluated (100=total damage to plant; 0=no damage to plant).
# [8] = system: Echinochloa crus-galli (ECHCG); experiment: as above; details: 312 h, after 13 days, 100=total damage, 0=no damage, read-out: Percentage damage caused to weed species ECHCG
# Method: as §1, with “8 days” for “one day”
# as §3
# Solanum nigrum (SOLNI) [9] = experiment: as above; details: 312 h, after 13 days, 100=total damage, 0=no damage, read-out: Percentage damage caused to weed species SOLNI
# Method: as §1, with “8 days” for “one day”
# as §3
# [10] = system: Ipomea hederaceae (IPOHE); experiment: as above; details: Ipomoea hederacea, 312 h, after 13 days, 100=total damage, 0=no damage, read-out: Percentage damage caused to weed species IPONE
# Method: as §1, with “8 days” for “one day”
# as §3
# Setaria faberi (SETFA) [11] = experiment: as above; details: 312 h, after 13 days, 100=total damage, 0=no damage, read-out: Percentage damage caused to weed species SETFA
# Method: as §1, with “8 days” for “one day”
# as §3
# [12] = system: Amaranthus retroflexus (AMARE); experiment: as above; details: 312 h, after 13 days, 100=total damage, 0=no damage, read-out: Percentage damage caused to weed species AMARE
# Method: as §1, with “8 days” for “one day”
# as §3
Structure (SMILES),pest or weed control at 250 g/ha [1],pest or weed control at 250 g/ha [2],pest or weed control at 250 g/ha (Solanum nigrum (SOLNI) [3]),pest or weed control at 250 g/ha [4],pest or weed control at 250 g/ha (Setaria faberi (SETFA) [5]),pest or weed control at 250 g/ha [6],pest or weed control at 250 g/ha [7],pest or weed control at 250 g/ha [8],pest or weed control at 1000 g/ha [1],pest or weed control at 1000 g/ha [2],pest or weed control at 1000 g/ha (Solanum nigrum (SOLNI) [3]),pest or weed control at 1000 g/ha [4],pest or weed control at 1000 g/ha (Setaria faberi (SETFA) [5]),pest or weed control at 1000 g/ha [6],pest or weed control at 1000 g/ha [7],pest or weed control at 1000 g/ha [8],pest or weed control at 1000 g/ha (Solanum nigrum (SOLNI) [9]),pest or weed control at 1000 g/ha [10],pest or weed control at 1000 g/ha (Setaria faberi (SETFA) [11]),pest or weed control at 1000 g/ha [12],other results
"COC(=O)c1nc(-c2cccnc2OCC(F)(F)F)nc(N)c1Cl [Compound 2-166, 4-Amino-5-chloro-6-methoxycarbonyl-2-(2-[2,2,2-trifluoroethoxy]-pyridin-3-yl)-pyrimidine]",0%,0%,0%,0%,0%,0%,0%,0%,,,,,,,,,,,,,pest or weed control at 250 g/ha (Solanum nigrum (SOLNI) [9]): 0%; pest or weed control at 250 g/ha [10]: 0%; pest or weed control at 250 g/ha (Setaria faberi (SETFA) [11]): 0%; pest or weed control at 250 g/ha [12]: 0%
"COC(=O)c1nc(-c2cc3cc(C)ccc3s2)nc(N)c1Cl [Compound 2-55, 4-Amino-5-chloro-6-methoxycarbonyl-2-(5-methylbenzothiophen-2-yl)-pyrimidine]",0%,0%,0%,10%,0%,10%,10%,0%,,,,,,,,,,,,,pest or weed control at 250 g/ha (Solanum nigrum (SOLNI) [9]): 30%; pest or weed control at 250 g/ha [10]: 40%; pest or weed control at 250 g/ha (Setaria faberi (SETFA) [11]): 0%; pest or weed control at 250 g/ha [12]: 70%
"COC(=O)c1nc(-c2ccc(Cl)s2)nc(N)c1Cl [Compound 2-2, 4-Amino-5-chloro-2-(5-chlorothiophen-2-yl)-6-methoxycarbonyl pyrimidine]",,,,,,,,,0%,0%,0%,20%,0%,80%,0%,0%,90%,70%,0%,100%,
"COC(=O)c1nc(-c2csc3ccc(C)cc23)nc(N)c1Cl [Compound 2-57, 4-amino-5-chloro-6-methoxycarbonyl-2-(5-methylbenz-[b]thiophen-3-yl)-pyrimidine]",,,,,,,,,0%,0%,0%,0%,0%,0%,0%,0%,0%,20%,0%,0%,
"COC(=O)c1nc(-c2ccsc2)nc(N)c1Cl [Compound 2-16, 4-Amino-5-chloro-6-methoxycarbonyl-2-thiophen-3-ylpyrimidine]",10%,0%,30%,0%,0%,90%,20%,0%,,,,,,,,,,,,,pest or weed control at 250 g/ha (Solanum nigrum (SOLNI) [9]): 0%; pest or weed control at 250 g/ha [10]: 40%; pest or weed control at 250 g/ha (Setaria faberi (SETFA) [11]): 0%; pest or weed control at 250 g/ha [12]: 0%
"COC(=O)c1nc(-c2ccc(C)nc2F)nc(N)c1Cl [Compound 2-161, 4-Amino-5-chloro-2-(2-fluoro-6-methylpyridin-3-yl)-6-methoxycarbonyl pyrimidine]",,,,,,,,,0%,0%,40%,0%,0%,60%,30%,60%,80%,100%,80%,90%,
"COC(=O)c1nc(-c2csc3ccccc23)nc(N)c1Cl [Compound 2-56, 4-Amino-2-(benzothiophen-3-yl)-5-chloro-6-methoxycarbonyl pyrimidine]",,,,,,,,,0%,0%,0%,0%,0%,60%,20%,40%,40%,20%,10%,100%,
"COC(=O)c1nc(-c2cc(Cl)nc(Cl)c2)nc(N)c1Cl [Compound 2-179, 4-Amino-5-chloro-2-(2,6-dichloropyridin-4-yl)-6-methoxycarbonyl pyrimidine]",,,,,,,,,0%,0%,0%,0%,0%,0%,0%,0%,30%,40%,10%,30%,
"CCOC(=O)c1nc(-c2ccc(C(F)(F)F)cn2)nc(N)c1Cl [Compound 3-150, 4-amino-5-chloro-6-ethoxycarbonyl-2-(5-trifluoromethylpyridin-2-yl)-pyrimidine]",,,,,,,,,0%,0%,0%,0%,0%,0%,0%,0%,0%,0%,0%,0%,
"COC(=O)c1nc(-c2ccsc2Cl)nc(N)c1Cl [Compound 2-18, 4-Amino-5-chloro-2-(2-chlorothiophen-3-yl)-6-methoxycarbonyl pyrimidine]",0%,0%,0%,0%,0%,0%,10%,10%,,,,,,,,,,,,,pest or weed control at 250 g/ha (Solanum nigrum (SOLNI) [9]): 0%; pest or weed control at 250 g/ha [10]: 40%; pest or weed control at 250 g/ha (Setaria faberi (SETFA) [11]): 10%; pest or weed control at 250 g/ha [12]: 20%
